This is an account of results in patent publication US8258257B2 (The Regents of the University of California, priority 2008, dated 2012).

One assay addresses GST-Cldn4.Ecl2 (R4) (Mus musculus, UniProt O35054). It counts as binding. Particulars: for Kd: read-out: calculated equilibrium affinity (KD).
Assay [1] has as its target T1, Cldn-4 Mutant R4 (Mus musculus, UniProt O35054).
T1 construct: made in house; host or cells: E. coli BL21 (pLysS)
The experiment in a line: Kd (1/s). The method, then:
(§1) Table printed on a drawing sheet, FIGURE 3
(§2) Title: Binding Kinetics of Various Peptides to Cldn-4 Mutant R4
Head of the field: Kd (1/s)
(§3) The processed specific binding sensorgrams are presented for each ligand. The 50 nM analyte concentration was repeated twice to confirm reproducibility. The binding kinetics was analyzed by “BIAevalution 3.1” software with 1:1 (langmuir) binding mode, and the binding constants were summarized in the table.
(§4) First copying reader's note: Panel B of FIGURE 3; panel A is a sensorgram plot and is left out.
(§5) Where the first naming reader finds the target: table_title: Binding Kinetics of Various Peptides to Cldn-4 Mutant R4

For assay [2], the target named is T1, Cldn-4 Mutant R4.
Assay [3] has as its target Claudin-4 Ecl2 domain (synthetic biotinylated peptide) (Mus musculus, UniProt O35054). It counts as binding.
The next assay concerns the target GST protein (Schistosoma japonicum, UniProt P08515). Format: binding.
For assay [4], the target named is T1, Cldn-4 Mutant R4. Description: KD (nM). The method, then:
as §1, §2
Head of the field: KD (nM)
as §3, §4, §5

“Also recorded” adds a separate entry of the source. Where no end group is shown, it is not given here.

T1 sequence (O35054 117-181, change not shown): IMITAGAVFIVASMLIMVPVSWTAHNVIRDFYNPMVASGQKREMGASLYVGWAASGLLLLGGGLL
GST protein, sequence (P08515 whole entry, looked up): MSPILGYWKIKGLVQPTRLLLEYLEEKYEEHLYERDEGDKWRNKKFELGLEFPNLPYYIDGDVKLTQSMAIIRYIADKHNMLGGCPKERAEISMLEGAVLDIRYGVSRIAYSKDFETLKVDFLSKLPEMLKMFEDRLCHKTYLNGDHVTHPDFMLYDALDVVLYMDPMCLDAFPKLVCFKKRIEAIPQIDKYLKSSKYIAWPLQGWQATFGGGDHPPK

Regarding APWTEHSYYLSL [CC4P-13R], the off-rate entry at GST-Cldn4.Ecl2 (R4) is listed as “slowest off-rate”.

Regarding “SPWSEPAYTLAP [CC4P-5] [listing 1 of 2 here]”, the “Kd” value in the assay with Cldn-4 Mutant R4 [1] is 0.00141 s⁻¹. Moreover, the “Ka” value with Cldn-4 Mutant R4 [2] is 315000 M⁻¹ s⁻¹.

In the case of “APWTEHSYYLSL [CC4P-13] [listing 1 of 2 here]”, at GST-Cldn4.Ecl2 (R4), the “KD (stated in words)” value is reported as “nanomolar level” and the “specific binding to Cldn4 Ecl2 (GST-Cldn4.R4)” value (from here on “specific binding to Cldn4 Ecl2”) is given as “clear specific binding; also recorded: orientation of biotinylation did not affect the binding; also recorded: significant affinity”.

Take “SLDAGQYVLVMKANSSYSGNYPYSILFQKF [Cpe30] [listing 1 of 2 here]”: the “Ka” value at Cldn-4 Mutant R4 [2] is 130000 M⁻¹ s⁻¹.

For the sequence “SLDAGQYVLVMKANSSYSGNYPYSILFQKF [Cpe30] [listing 2 of 2 here]”, on GST-Cldn4.Ecl2 (R4), the on-rate entry was “similar”, the “specific binding to Cldn4 Ecl2” value is given as “optimal binding activity; also recorded: strong specific binding” and the Kd is 2.56 nM. Further, in assay [3], the “binding to lariat Ecl2 (cyclic, disulfide bond)” value is “failed to bind”; the “binding to linear B-Ecl2 peptide” value is “No specific binding”; the “binding to tethered Ecl2 (B-Ecl2-B, biotin at both termini)” value is “failed to bind”. Besides, on GST protein, the “binding to GST protein only” value is recorded as “did not bind”.

As to VTHKTCPPACWP [CC4P-2], the “specific binding to Cldn4 Ecl2” value on GST-Cldn4.Ecl2 (R4) is recorded as “no specific binding”.

For the sequence ASNSSYSGNYSIL [Cpe30 MT3], the “specific binding to Cldn4 Ecl2” value on GST-Cldn4.Ecl2 (R4) is given as “did not bind”.

As for “SPWSEPAYTLAP [CC4P-5] [listing 2 of 2 here]”, at GST-Cldn4.Ecl2 (R4), the “KD (stated in words)” value is recorded as “nanomolar level” and the “specific binding to Cldn4 Ecl2” value is “clear specific binding; also recorded: significant affinity”.

Consider “NSSYSGNYPYSILFQKF [Cpe17, NSSYSGNYPYSILFQKF]”, for which, on GST-Cldn4.Ecl2 (R4), the off-rate entry is “slightly slower off-rate”, the on-rate entry is “similar”, the “specific binding to Cldn4 Ecl2” value was “strong specific binding” and the Kd is 1.57 nM. The sequence also displayed a Kd at Cldn-4 Mutant R4 [4] of 2.12 nM.

For “APWTEHSYYLSL [CC4P-13] [listing 2 of 2 here]”, the “Kd” value in the assay with Cldn-4 Mutant R4 [1] was found to be 0.000742 s⁻¹.

Consider SSYSGNYPYSIL [Cpe30 MT1], for which the “specific binding to Cldn4 Ecl2” value at GST-Cldn4.Ecl2 (R4) is “no specific binding; also recorded: did not bind”.
